Results from EP4755885A1 (Shanghai Hansoh Biomedical Co., Ltd., priority 2023, dated 2025).
Each block holds one molecule with its values, some of them ahead of it.

Legend:
human GLP-1 receptor = molecular target: T1, human GLP-1 receptor (Homo sapiens, UniProt P43220); experiment: cAMP production in cell line stably transformed with human GLP1 receptor, 2 h co-incubation (HTRF); type: cell-based; conditions: CHO-K1/GLP-1R/CRE-luc cells, stimulation for 2 h, read-out: EC50
T1 construct: expressed in transfected cells
Description: The purpose of this assay example is to test the ability of the compound to activate the human GLP-1 receptor on cell surface. The EC50 for stimulated cAMP production after activation characterizes the ability of the compound to activate the human GLP-1 receptor.
In this experiment, the compound and cells were co-incubated for 2 h.
Frozen cell line CHO-K1/GLP-1R/CRE-luc stably transformed with human GLP1 receptor was removed from a liquid nitrogen tank, and was placed in a 37°C water bath for rapid thawing. The cells were resuspended in DMEM/F12 medium, and after centrifugation, were washed once. The cells were resuspended in an experimental buffer, i.e., DMEM/F12 medium containing 0.1% casein. After centrifugation, cell density was adjusted using the experimental buffer. The cells were plated onto a 384-well plate at a density of 1500 cells/5 µL/well. Then, each well was added with 2.5 µL of IBMX working solution prepared with the buffer, the final concentration of IBMX being 0.5 mM, and 2.5 µL of a serially diluted compound sample (starting from […], 3-fold dilution, 12 concentrations). The plate was centrifuged at 1000 rpm for 1 min, and was stood for incubation at 37°C for 2 h. Determination was performed using the Cisbio cAMP - Gs Dynamic kit. cAMP-d2 and anti-cAMP-Eu3+-Cryptate were diluted 18-fold and 20-fold respectively with cAMP Lysis & Detection Buffer, and were respectively mixed homogeneously. Each well was added with 5 µL of diluted cAMP-d2 solution, and the plate was centrifuged at 1000 rpm for 1 min, and shaken for 30 seconds for homogeneous mixing. Then, each well was added with 5 µL of diluted anti-cAMP-Eu3+-Cryptate solution, and the plate was centrifuged at 1000 rpm for 1 min and was incubated in the dark at room temperature for 1 h. HTRF signals were read using the Biotek Synergy H1 microplate reader, the excitation wavelength being 320 nm and the emission wavelengths being 620 nm and 665 nm.
The signal-to-signal ratio was calculated (665 nm/620 nm * 10,000). Nonlinear fitting between the signal-to-signal ratio and the sample concentration was performed in GraphPad Prism 10 using a four-parameter equation to obtain the EC50 value.

[1] = Pharmacokinetic evaluation in mice, oral administration; type: in vivo, Balb/c mice; conditions: p.o. 5 mg/kg, plasma; for AUC(0-inf) / AUC(0-t) / Cmax / Tmax / MRT inf: mouse, in vivo, po; for MRT inf: read-out: MRT 0-∞
Description: Balb/c mice were used as test animals to study the pharmacokinetic behavior of the compound of the present invention in mice (plasma) at a dose of 5 mg/kg administered orally and 1 mg/kg administered intravenously.
Balb/c mice, 3 per group, male.
(§1) Preparation of drug for oral administration: 10%PEG400/10%PG/80% glycine buffer (100 mM glycine, 64 Mm NaOH, […]) buffer.
10 ml of PEG400, 10 ml of PG, and 80 ml of (100 mM glycine, 64 Mm NaOH, pH = 9) were measured into a 100 ml volumetric flask, vortexed, mixed homogeneously, and sonicated to obtain a clear solution.
Single PK: An example compound was weighed into a 4 mL glass bottle. The solution was added, and sonication was performed for 10 min to obtain a colorless clear solution having a concentration of 0.5 mg/mL.
The solution was added, and sonication was performed for 10 min to obtain a colorless clear solution having a concentration of 0.5 mg/mL.
Three Balb/c mice, male, respectively administered p.o. after fasting overnight, at a dose of 5 mg/kg and in an administration volume of 10 mL/kg.
The blood samples were placed in EDTA-K2 anticoagulant tubes and centrifuged at 6000 rpm at 4°C for 6 min to separate plasma, which was stored at -80°C. The mice were fed 4 h after administration.
(§2) • 1) 40 µL of a plasma sample was added with 160 µL of acetonitrile for precipitation, and after mixing, the mixture was centrifuged at 3500 × g for 5 to 20 min. • 2) The supernatant solution after treatment was taken for LC/MS/MS analysis of the concentration of the test compound. The LC/MS/MS analysis instrument was AB Sciex API 4000 Qtrap.
• Liquid phase condition: Shimadzu LC-20AD pump • Chromatographic column: Agilent ZORBAX XDB-C18 (50×2.1 mm, 3.5 µm) Mobile phase: Solution A was 0.1% formic acid aqueous solution, and Solution B was acetonitrile • Flow rate: 0.4 mL/min • Elution time: 0-4.0 min, the eluent was as follows:
Main pharmacokinetic parameters were calculated using WinNonlin 6.1.

[2] = Pharmacokinetic evaluation in beagles, oral administration; type: in vivo; conditions: p.o. 2 mg/kg, plasma; for MRT inf: read-out: MRT 0-∞
Description: Beagles were used as test animals to study the pharmacokinetic behavior of the compound of the present invention, administered orally at a dose of 2 mg/kg, in beagles (plasma).
Beagles, 3 per group, male.
as §1
Single PK: The compound of the present invention was weighed into a 100 mL glass bottle, and the solution was added. The pH was first adjusted with 1 M NaOH until the compound dissolves to obtain a clear solution, and then the pH was readjusted to pH 9.0-9.5 with 1 M HCl. Sonication was performed for 10 min to obtain a colorless clear solution having a concentration of 0.4 mg/mL.
Three beagles, male, respectively administered p.o. after fasting overnight, at a dose of 2 mg/kg and in an administration volume of 5 mL/kg.
Blood collection: 0.3 mL of blood was collected from the forelimb vein of the beagles before administration and at 0.25, 0.5, 1, 2, 4, 6, 8, and 24 h after administration. The blood samples were placed in EDTA-K2 anticoagulant tubes and centrifuged at 6000 rpm at 4°C for 6 min to separate plasma, which was stored at -80°C. The beagles were fed 4 h after administration.
as §2
• Liquid phase condition: Shimadzu LC-20AD pump • Chromatographic column: Agilent ZORBAX XDB-C18 (50×2.1 mm, 3.5 µm) Mobile phase: Solution A was 0.1% formic acid aqueous solution, and Solution B was acetonitrile • Flow rate: 0.4 mL/min • Elution time: 0-4.0 min, the eluent was as follows: […]

[3] = not marked single PK (cassette PK)

T1 sequence (P43220 24-463): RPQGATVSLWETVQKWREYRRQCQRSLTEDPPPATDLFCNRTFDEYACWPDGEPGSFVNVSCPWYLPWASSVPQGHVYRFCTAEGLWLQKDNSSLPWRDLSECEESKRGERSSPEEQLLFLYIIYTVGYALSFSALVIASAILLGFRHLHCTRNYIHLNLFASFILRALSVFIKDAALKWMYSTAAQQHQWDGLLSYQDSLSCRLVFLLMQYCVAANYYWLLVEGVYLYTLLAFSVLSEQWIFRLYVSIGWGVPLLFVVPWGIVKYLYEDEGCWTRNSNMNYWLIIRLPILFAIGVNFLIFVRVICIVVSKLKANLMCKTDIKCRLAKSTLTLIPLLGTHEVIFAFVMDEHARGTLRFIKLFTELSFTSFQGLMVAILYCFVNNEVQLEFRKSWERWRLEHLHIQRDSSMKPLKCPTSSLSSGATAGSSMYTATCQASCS

Molecule: Cc1cc(-n2nc3c(c2-n2ccn(-c4ccc5c(cnn5C5CC5)c4F)c2=O)[C@H](C)N(C(=O)c2cc4cc([C@H]5CCOC(C)(C)C5)ccc4n2[C@@]2(c4noc(=O)[nH]4)C[C@@H]2COc2ccccc2)CC3)cc(C)c1F [Example 187]
EC50 (human GLP-1 receptor): 0.08 nM

Molecule: Cc1cc(-n2nc3c(c2-n2ccn(-c4ccc5c(cnn5C5CC5)c4F)c2=O)[C@H](C)N(C(=O)c2cc4cc([C@H]5CCOC(C)(C)C5)ccc4n2[C@@]2(c4noc(=O)[nH]4)C[C@@H]2C#N)CC3)cc(C)c1F [Example 190]
EC50 (human GLP-1 receptor): 0.04 nM

Molecule: Cc1cc(-n2nc3c(c2-n2ccn(-c4cc5c6c(c4)OCCN6C(=O)CC5)c2=O)[C@H](C)N(C(=O)c2cc4cc([C@H]5CCOC(C)(C)C5)ccc4n2[C@@]2(c4noc(=O)[nH]4)C[C@@H]2C)CC3)cc(C)c1F [Example 43]
EC50 (human GLP-1 receptor): 0.06 nM

Molecule: C#C[C@H]1C[C@]1(c1noc(=O)[nH]1)n1c(C(=O)N2CCc3nn(-c4cc(C)c(F)c(C)c4)c(-n4ccn(-c5cc6c7c(c5)CCC(=O)N7CCC6)c4=O)c3[C@@H]2C)cc2cc([C@H]3CCOC(C)(C)C3)ccc21 [Example 174]
EC50 (human GLP-1 receptor): 0.15 nM

Molecule: [2H]C([2H])(OC1CC1)[C@H]1C[C@]1(c1noc(=O)[nH]1)n1c(C(=O)N2CCc3nn(-c4cc(C)c(F)c(C)c4)c(-n4ccn(-c5ccc6c(cnn6C6CC6)c5F)c4=O)c3[C@@H]2C)cc2cc([C@H]3CCOC(C)(C)C3)ccc21 [Example 194]
EC50 (human GLP-1 receptor): 0.009 nM
AUC(0-inf) [1, 3]: 32200 ng·h/mL
AUC(0-t) [1, 3]: 19100 ng·h/mL
Cmax [1, 3]: 1840 ng/mL
Tmax [1, 3]: 2.7 h
MRT inf [1, 3]: 26.6 h
tl/2 [1, 3]: 19.9 h
AUC(0-inf) ([2]; dog, po): 43700 ng·h/mL
AUC(0-t) at 24 h ([2]; dog, po): 40100 ng·h/mL
half-life ([2]; dog, po): 7.6 h
Cmax ([2]; dog, po, read-out: Cmax): 5830 ng/mL
MRT inf ([2]; dog, po): 8.3 h
Tmax ([2]; dog, po, read-out: tmax): 1 h

Molecule: Cc1cc(-n2nc3c(c2-n2ccn(-c4ccc5c(cnn5C5CC5)c4F)c2=O)[C@H](C)N(C(=O)c2cc4cc([C@H]5CCOC(C)(C)C5)ccc4n2[C@@]2(c4noc(=O)[nH]4)C[C@@H]2COC2CC2)CC3)cc(C)c1C#N [Example 195]
EC50 (human GLP-1 receptor): 0.035 nM

Molecule: Cc1cc(-n2nc3c(c2-n2ccn(-c4ccc5c(cnn5C5CC5)c4F)c2=O)[C@H](C)N(C(=O)c2cc4cc([C@H]5CCOC(C)(C)C5)ccc4n2[C@@]2(c4noc(=O)[nH]4)C[C@@H]2C)CC3)cc(C)c1C#N [Example 49]
EC50 (human GLP-1 receptor): 0.032 nM
AUC(0-inf) ([1]; single PK): 16600 ng·h/mL
AUC(0-t) ([1]; single PK): 15700 ng·h/mL
Cmax ([1]; single PK): 2430 ng/mL
Tmax ([1]; single PK): 1 h
MRT inf ([1]; single PK): 7.1 h
tl/2 ([1]; single PK): 6.5 h

AUC(0-inf) [1, 3]: 9320 ng·h/mL
AUC(0-t) [1, 3]: 8990 ng·h/mL
Cmax [1, 3]: 1040 ng/mL
Tmax [1, 3]: 1 h
MRT inf [1, 3]: 6.7 h
tl/2 [1, 3]: 5.3 h
Molecule: C[C@H]1c2c(nn(-c3ccc(F)c(C4CC4)c3)c2-n2ccn(-c3ccc4c(c3)C3(CC3)C(=O)N4C)c2=O)CCN1C(=O)c1cc2cc([C@H]3CCOC(C)(C)C3)ccc2n1[C@@]1(c2noc(=O)[nH]2)C[C@@H]1C [Example 32]

Molecule: Cc1cc(-n2nc3c(c2-n2ccn(-c4ccc5c(cnn5C5CC5)c4F)c2=O)[C@H](C)N(C(=O)c2cc4cc([C@H]5CCOC(C)(C)C5)ccc4n2[C@@]2(c4noc(=O)[nH]4)C[C@@H]2COC(F)F)CC3)cc(C)c1F [Example 68]
EC50 (human GLP-1 receptor): 0.016 nM

Molecule: Cc1cc(-n2nc3c(c2-n2ccn(-c4cc5c6c(c4)CCC(=O)N6CCC5)c2=O)[C@H](C)N(C(=O)c2cc4cc([C@H]5CCOC(C)(C)C5)ccc4n2[C@@]2(c4noc(=O)[nH]4)C[C@@H]2C)CC3)cc(C)c1F [Example 34]
EC50 (human GLP-1 receptor): 0.11 nM
AUC(0-inf) ([1]; single PK): 13300 ng·h/mL
AUC(0-t) ([1]; single PK): 12100 ng·h/mL
Cmax ([1]; single PK): 1510 ng/mL
Tmax ([1]; single PK): 1 h
MRT inf ([1]; single PK): 9 h
tl/2 ([1]; single PK): 7.8 h
AUC(0-inf) ([2]; dog, po): 9390 ng·h/mL
AUC(0-t) at 24 h ([2]; dog, po): 9090 ng·h/mL
half-life ([2]; dog, po): 5.1 h
Cmax ([2]; dog, po, read-out: Cmax): 1330 ng/mL
MRT inf ([2]; dog, po): 5.7 h
Tmax ([2]; dog, po, read-out: tmax): 1.7 h

Molecule: Cc1cc(-n2nc3c(c2-n2ccn(-c4cc5c6c(c4)CCC(=O)N6CCC5)c2=O)[C@H](C)N(C(=O)c2cc4cc([C@H]5CCOC(C)(C)C5)ccc4n2[C@@]2(c4noc(=O)[nH]4)C[C@@H]2COC2CC2)CC3)cc(C)c1F [Example 200]
EC50 (human GLP-1 receptor): 0.09 nM

Molecule: 3-((3R,4r,5 S)-4-(5-((S)-2,2-dimethyltetrahydro-2H-pyran-4-yl)-2-((S)-3-(3-(4-fluoro-1-(methyl-d3)-1H-indazol-5-yl)-2-carbonyl-2,3-dihydro-1H-imidazol-1-yl)-2-(4-fluoro-3,5-dimethylbenzene)-4-methyl-4,5,6,7-tetrahydro-2H-pyrazolo[4,3-c]pyridine-5-carbonyl)-1H-indol-1-yl)tetrahydro-2H-pyran-4-yl)-1,2,4-oxadiazol-5(4H)-one [Example 338]
EC50 (human GLP-1 receptor): 0.023 nM
AUC 0-∞ [2]: 21417 ng·h/mL
AUC(0-t) [2]: 20922 ng·h/mL
Cmax [2]: 3915 ng/mL
MRT 0-∞ [2]: 5.3 h
Tmax [2]: 1.3 h
t1/2 [2]: 4.4 h
